Experimental data from publication PMC8674378 (Journal of the American Chemical Society, 2021).
Converted amounts (≈) assume the structure as drawn.

What was measured:
[1] = system: S. cerevisiae Δilv2 strain expressing AtAHAS; assay: Yeast growth inhibition in Ile and Val dropout medium; assay type: cell-based; details: Δilv2 complemented with AtAHAS
ScsAHAS = target: T1, ScsAHAS (Sclerotinia sclerotiorum, UniProt A7EMK2); assay: AHAS enzyme inhibition assay; assay type: biochemical, S. sclerotiorum 1980 UF-70
T1 sequence (A7EMK2 30-699): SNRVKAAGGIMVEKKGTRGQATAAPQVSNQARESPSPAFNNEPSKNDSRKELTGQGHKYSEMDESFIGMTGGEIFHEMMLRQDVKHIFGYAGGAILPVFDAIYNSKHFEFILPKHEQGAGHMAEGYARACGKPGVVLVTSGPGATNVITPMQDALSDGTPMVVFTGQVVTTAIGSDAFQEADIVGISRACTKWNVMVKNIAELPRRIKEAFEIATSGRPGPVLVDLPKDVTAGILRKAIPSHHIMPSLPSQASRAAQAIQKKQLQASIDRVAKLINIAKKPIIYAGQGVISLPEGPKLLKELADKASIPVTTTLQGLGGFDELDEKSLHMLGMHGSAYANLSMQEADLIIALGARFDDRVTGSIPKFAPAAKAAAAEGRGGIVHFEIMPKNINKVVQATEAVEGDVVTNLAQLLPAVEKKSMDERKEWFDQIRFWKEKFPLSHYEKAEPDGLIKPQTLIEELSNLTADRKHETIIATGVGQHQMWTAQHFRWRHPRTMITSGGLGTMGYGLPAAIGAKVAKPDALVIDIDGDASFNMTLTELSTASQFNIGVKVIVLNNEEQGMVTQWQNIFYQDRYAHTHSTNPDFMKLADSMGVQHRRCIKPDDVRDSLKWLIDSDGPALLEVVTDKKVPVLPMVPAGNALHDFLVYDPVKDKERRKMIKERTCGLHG

[2] = system: S. cerevisiae Δilv2 strain expressing ThAHAS^M; assay: Yeast growth inhibition in Ile and Val dropout medium; assay type: cell-based; details: Δilv2 complemented with ThAHAS^M
ThAHAS = assay: AHAS enzyme inhibition assay; assay type: biochemical, Trichoderma afroharzianum t-22
[3] = system: S. cerevisiae Δilv2 strain expressing ThAHAS; assay: Yeast growth inhibition in Ile and Val dropout medium; assay type: cell-based; details: Δilv2 complemented with ThAHAS
ThAHAS^M = assay: AHAS enzyme inhibition assay; assay type: biochemical, Trichoderma afroharzianum t-22; details: for IC50: [E]=0.5 μM
FuoAHAS = FuoAHAS (Fusarium oxysporum, UniProt X0CFW6); assay: AHAS enzyme inhibition assay; assay type: biochemical, F. oxysporum NRRL 32931
[4] = system: S. cerevisiae BJ5464-NpgA; assay: Yeast growth inhibition in Ile and Val dropout medium; assay type: cell-based; details: parent yeast strain
CalAHAS = details: cited from earlier work
SceAHAS = SceAHAS (Saccharomyces cerevisiae, UniProt P07342); assay: biochemical
Chain of SceAHAS (P07342 91-687): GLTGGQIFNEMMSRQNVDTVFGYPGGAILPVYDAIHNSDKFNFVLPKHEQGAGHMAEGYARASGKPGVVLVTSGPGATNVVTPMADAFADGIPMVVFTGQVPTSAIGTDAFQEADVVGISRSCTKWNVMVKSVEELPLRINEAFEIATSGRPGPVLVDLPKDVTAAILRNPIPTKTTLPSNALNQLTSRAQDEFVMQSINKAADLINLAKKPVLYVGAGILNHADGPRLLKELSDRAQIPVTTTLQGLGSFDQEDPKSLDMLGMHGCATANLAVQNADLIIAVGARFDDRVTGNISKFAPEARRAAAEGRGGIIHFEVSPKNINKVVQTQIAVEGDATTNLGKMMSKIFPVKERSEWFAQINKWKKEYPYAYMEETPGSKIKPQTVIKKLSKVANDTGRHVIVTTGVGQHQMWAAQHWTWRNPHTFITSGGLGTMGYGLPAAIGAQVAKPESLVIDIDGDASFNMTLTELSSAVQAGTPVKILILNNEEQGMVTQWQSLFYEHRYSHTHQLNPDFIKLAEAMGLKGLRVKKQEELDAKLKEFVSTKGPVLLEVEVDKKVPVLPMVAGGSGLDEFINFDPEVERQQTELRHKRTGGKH

soybeans = details: cited from earlier work
[5] = system: S. cerevisiae Δilv2 strain with AHAS complementation; assay type: cell-based; details: under assay concentrations, even in Ile and Val supplemented growth media
(UniProt Z9DR95LUB2) = assay: AHAS enzyme inhibition assay; assay type: biochemical, Trichoderma afroharzianum t-22
ThAHAS K247A = target: T2, ThAHAS K247A (Trichoderma afroharzianum, UniProt A0ABF7PL51, K247A); assay: AHAS enzyme inhibition assay, K247A mutant; assay type: biochemical, Trichoderma afroharzianum t-22
T2 sequence (A0ABF7PL51 53-689 K247A): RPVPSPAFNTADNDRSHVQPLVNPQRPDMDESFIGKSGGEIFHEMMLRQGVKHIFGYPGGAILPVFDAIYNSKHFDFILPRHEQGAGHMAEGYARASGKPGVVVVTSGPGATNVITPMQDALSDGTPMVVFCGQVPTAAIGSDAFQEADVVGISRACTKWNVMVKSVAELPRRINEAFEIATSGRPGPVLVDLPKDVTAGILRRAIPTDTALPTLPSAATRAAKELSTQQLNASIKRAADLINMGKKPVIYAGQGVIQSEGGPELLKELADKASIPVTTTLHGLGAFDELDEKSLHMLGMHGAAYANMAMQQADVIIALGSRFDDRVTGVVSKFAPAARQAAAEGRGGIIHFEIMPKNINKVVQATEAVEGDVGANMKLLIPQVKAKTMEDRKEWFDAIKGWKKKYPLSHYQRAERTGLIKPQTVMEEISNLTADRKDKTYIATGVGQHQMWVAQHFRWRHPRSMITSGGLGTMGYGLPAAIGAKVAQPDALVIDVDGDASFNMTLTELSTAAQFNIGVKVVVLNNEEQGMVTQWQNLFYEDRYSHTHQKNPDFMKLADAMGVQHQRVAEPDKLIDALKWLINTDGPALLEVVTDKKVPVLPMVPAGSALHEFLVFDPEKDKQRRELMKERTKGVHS

F. oxysporum = assay: Antifungal resazurin assay; assay type: cell-based
AtAHAS = target: T3, AtAHAS (Arabidopsis thaliana, UniProt P17597); assay: AHAS enzyme inhibition assay; assay type: biochemical
T3 sequence (P17597 56-670): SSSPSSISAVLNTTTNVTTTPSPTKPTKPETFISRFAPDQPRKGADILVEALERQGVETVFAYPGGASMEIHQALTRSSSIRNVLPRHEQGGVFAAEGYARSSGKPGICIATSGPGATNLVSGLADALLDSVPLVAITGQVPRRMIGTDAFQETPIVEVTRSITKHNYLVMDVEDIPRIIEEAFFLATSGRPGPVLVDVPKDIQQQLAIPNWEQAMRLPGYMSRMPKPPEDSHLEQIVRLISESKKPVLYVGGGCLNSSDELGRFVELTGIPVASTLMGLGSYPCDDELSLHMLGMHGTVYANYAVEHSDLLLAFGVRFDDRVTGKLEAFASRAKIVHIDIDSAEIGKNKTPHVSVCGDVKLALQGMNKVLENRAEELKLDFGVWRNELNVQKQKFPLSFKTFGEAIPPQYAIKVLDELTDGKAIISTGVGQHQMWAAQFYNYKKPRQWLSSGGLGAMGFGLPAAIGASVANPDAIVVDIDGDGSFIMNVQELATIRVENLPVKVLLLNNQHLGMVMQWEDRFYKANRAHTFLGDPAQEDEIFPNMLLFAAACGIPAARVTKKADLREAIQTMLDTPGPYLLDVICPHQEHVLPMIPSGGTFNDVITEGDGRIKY

Rhizoctonia solani = details: plant pathogenic fungus; cited from earlier work
Sclerotinia sclerotiorum = details: plant pathogenic fungus; cited from earlier work
canola seedlings = details: higher (10–100 μg) doses, petri dishes; cited from earlier work

For `COC(=O)c1ccccc1S(=O)(=O)NC(=O)Nc1nc(C)cc(C)n1` [SM, sulfometuron methyl, reference compound], the growth inhibition [1] was “potently inhibited”, the “sensitivity of ScsAHAS” value (ScsAHAS; in vitro assay conditions) was “completely insensitive” and the growth inhibition [2] was “minimal sensitivity”. For the same molecule, the IC50 (ThAHAS) was roughly 0.35 µM, the growth inhibition [3] was “potently inhibited” and the “inhibition of ThAHAS^M” value (ThAHAS^M; even at elevated concentration (100 μM)) was “no inhibition”. For the same molecule, the “sensitivity of FuoAHAS” value (FuoAHAS; in vitro assay conditions) was “completely insensitive” and the growth inhibition [4] was “potently inhibited”.

`CCCC=CC=CC(=O)C1=C(O)C(CC(O)(C(=O)O)C(C)C)NC1=O` (stereo not shown) [compound 5, demethylharzianic acid] gave an IC50 (ThAHAS^M) of 37 µM.

In the case of `COc1cc(OC)n2nc(S(=O)(=O)Nc3c(Cl)ccc(C)c3Cl)nc2n1` [MT, metosulam], the Ki (CalAHAS) is given as “low nanomolar”.

For `CCCC=CC=CC(=O)C1=C(O)C(CC(O)(C(=O)O)C(C)C)N(C)C1=O` (stereo not shown) [HA, harzianic acid], the Ki (SceAHAS) is listed as roughly 83 µM, the Ki (ScsAHAS) is listed as 11 µM and the “increase of production of soybean pods and seeds” value (soybeans; field conditions) is listed as 5–10%. For the same molecule, the “improvement of stem lengths” value (soybeans; soybeans, greenhouse conditions) was greater than 40%, the toxicity towards yeast [5] was “general toxicity” and the Ki ((UniProt Z9DR95LUB2)) was 6.65 µM. The “preferential binding, fold lower in Ki” value (ThAHAS; filamentous fungal AHAS over yeast SceAHAS) was greater than 10 fold, the IC50 (ThAHAS K247A) was 162 µM and the “fold increase in IC50 by K247A mutation” value (ThAHAS K247A; K247A versus ThAHAS) was 4 fold. The IC50 (F. oxysporum; Fusarium oxysporum, 48 h, read-out: IC50 of growth inhibition) was roughly 26 µg/mL (≈ 71.1 µM), the inhibition of growth (F. oxysporum; grown in the presence of BCAAs (Leu, Ile and Val), RPMI 1640, 48h) was “inhibition of growth was only observed at very high concentrations” and the “inhibition of plant AtAHAS” value (AtAHAS) was “No inhibition”. For the same molecule, the antifungal activity (Rhizoctonia solani) was “antifungal activity”, the Ki (ThAHAS^M) was 3.39 µM and the IC50 (ThAHAS^M) was 20 µM. For the same molecule, the antifungal activity (Sclerotinia sclerotiorum) was “antifungal activity”, the “effect on growth of canola seedlings” value (canola seedlings) was “growth inhibition” and the Ki (FuoAHAS) was 14 µM.
